Measurements as given in patent US8889411B2, “Modulation of stem and progenitor cell differentiation, assays, and uses thereof” (Anthrogenesis Corporation, priority 2002, dated 2014).

How the values were obtained:
[1] = system: Human Cord Blood MNC Cells; assay: FACS analysis of cryopreserved and thawed cord blood MNCs after 1 week of culture with cytokines; format: cell-based; settings: 5 μg in 1.7 μl DMSO, average +/− SD of three wells
Procedure: Cord blood MNCs that had been cryopreserved and thawed using standard methods were isolated by standard Ficoll separation method and cultured in 24 well-plate at 0.5×10^6 cells/ml in 20% FCS-IMDM with cytokines (1L6, KL and G-CSF 10 ng/ml each) in triplicates. The experimental groups were None (cytokines only), DMSO (1.7 μl), ACTIMID™ (5.0 μg in 1.7 μl DMSO), REVIMID™ (5 μg in 1.7 μl DMSO). The cultured cells were harvested and analyzed by FACS staining after 1 week of culture. The data are expressed as an average +/− SD from three independent wells.

[2] = system: human cord blood CD45+ cells; assay: Flow cytograms of cord blood CD45+ cells cultured 14 days with IL3, IL6, G-CSF, Epo and KL; format: cell-based; settings: 5 μg/ml
Procedure: (§1) FIGS. 9(A-F). Flow cytograms. […] Cord blood CD45+ cells were cultured for 14 days with cytokines IL3, IL6, G-CSF, Epo and KL. Percentages indicated on each cytogram indicate the percentage of the cell population expressing a particular combination of markers. A. Control, immunoglobulin (Ig). B. Control, no compound added. C. DMSO (5 μg/ml). D. Thal (5 μg/ml). E. ACTIMID™ (5 μg/ml). F. REVIMID™ (5 μg/ml). X-axis: relative intensity of CD38 (FL1-H) staining. Y-axis: relative intensity of CD19 (FL2-H) staining. See Section 6.3 for details.
as §1, with “10(A-F).” for “9(A-F).”, “CXCR5” for “CD38”, “CD34” for “CD19”

[3] = system: Bone marrow and cord blood CD34+ progenitor cells; assay: Differentiation of CD34+ progenitor cells into dendritic cells, cell surface phenotype by flow cytometry; format: cell-based, human; parameters: key to Cell Population CD15+ / Cell Population CD34+ CD38− / Cell Population CD34− CD38+ / Cell Population CD1a+ CD14− / Cell Population CD1a− CD14+: ↑: up arrow indicates an increase in the cell population; ↓: down arrow indicates a decrease
Procedure: Bone marrow and cord blood CD34^+ progenitor cells were obtained from Clonetics and cultured in Iscove's MDM with BIT 95000 (StemCell Technologies) in the presence of SCF, Flt-3L, GM-CSF and TNF-α for 6 days, and then in the presence of GM-CSF and TNF-α for 6 additional days.
Analysis of cell surface phenotype: Cells were processed for double staining (30 min at 4° C.) at day 6 and day 12 using FITC and PE conjugated mAbs. Antibodies used were from BD Pharmingen: CD34 (PE), CD38 (FITC), CD33 (FITC), CD1a (FITC), CD86 (PE), CD14 (PE), CD83 (PE), CD54 (PE), CD11b (PE), CD11c (PE), HLA-DR (PE), CD15 (FITC), and CD133 (PE) from Miltenyi. Fluorescence analysis was performed on a FACScan flow cytometer after acquisition of 10,000 events (Coulter). Results presented are representative of four independent experiments.
The methodology described above, i.e., the examination of the effect of IMiDs such as ACTIMID™ on the differentiation on early progenitor cells, such as CD34^+ cells, can be applied to any compound of interest, the effect of which on differentiation is desired to be known. As an example of the extension of this assay method to other compounds, we compared the effect of retinoic acid (ATRA) and aspirin to that of ACTIMID™ on the differentiation of CD34^+ cells toward the DC lineage versus the control (DMSO-treated) cells. Retinoic acid was studied because of its known effect on cellular proliferation and differentiation, its therapeutic use in some cancer, and its known teratogenic effect. Conversely, we studied the effect of aspirin because it is a commonly-used anti-inflammatory drug with no immunomodulatory properties. The results at day 6 of CD34^+ progenitors cells cultured in the presence of SCF, Flt-3L, GM-CSF and TNF-α, with or without compound for a period of 6 days, are presented below in Table 2 (up arrow indicates an increase in the cell population; down arrow indicates a decrease).

[4] = system: cells derived from CD34+ progenitor cells; assay: Phagocytosis: FITC-dextran uptake (mannose receptor-mediated endocytosis); format: cell-based, human; settings: compared to DMSO control
Procedure: Phagocytosis: The endocytic activity of the cells was analyzed by measuring FITC-dextran uptake. Cells were incubated with 1 mg/ml dextran-FITC (Sigma) in complete medium at 37° C. for 1 hour and 4° C. for 1 hour as a negative control. Results presented are representative of two independent experiments.

[5] = Day 12, compound from day 6 to day 12
[6] = day 6, SCF, Flt-3L, GM-CSF and TNF-α, versus DMSO-treated control

## Nc1cccc2c1C(=O)N(C1CCC(=O)NC1=O)C2=O (stereo not drawn) [ACTIMID™, 4-(Amino)-2-(2,6-dioxo(3-piperidyl))-isoindoline-1,3-dione]
[1]
  CD34(%): 3.31 +/− 0.64%
  CD34+CD38−(%): 1.70 +/− 0.22%
  CXCR4+CD45+(%): 2.9 +/− 0.5%
  CXCR4+CD45−(%): 4.27 +/− 0.23%
  Total CD34+ cells: 7800 +/− 2600
  Total cells (1 × 10^6): 0.223 +/− 0.06 1 × 10^6
[2]; FIG. 9
  differentiation into B cells (CD19/CD38 staining): minor suppressive effects
[2]; FIG. 10
  repression of CXCR5 produced by exposure to DMSO: overcomes the repression
[3]
  toxic effects on CD34+ cells: no toxic effects
[3]; 1 μM, day 1 to day 12
  CD34+CD38− population: increased
  acquisition of the DC phenotype: inhibited
  expression of co-stimulatory molecules (CD86, CD80) at day 12: decreased expression
[3]; 1 μM, day 12
  expression of the CD54bright population: decreased expression
  expression of the CD54dim population: increased expression
[3]; 1 μM, from day 1
  generation of CD14+CD1a− cells: decreased
[3]; 1 μM, from day 1, particularly CD86+CD1a+ cells
  generation of CD1a+ cells at day 6: almost completely prevented
[3]; 12 days in the presence of compound, FIG. 22
  expression of the CD15 surface molecule (granulocytic marker): increased
[3]; CD34+ cells
  cells' ability to proliferate: not to impair
[3]; [5]
  CD1a+: 11.5%
  CD14+: 8.0%
  CD80+: 13.8%
  CD86+: 18.5%
[3]; FIG. 19B
  CD11c+CD15− population: decrease
  CD11c−CD15+ granulocytic population: increase
[3]; [6]
  Cell Population CD1a+ CD14−: ↓
  Cell Population CD1a− CD14+: ↓
  Cell Population CD15+: ↑
  Cell Population CD34+ CD38−: ↑
  Cell Population CD34− CD38+: ↓
[3]; dose dependant, day 0 to day 6, FIG. 17
  concentration at which increase in CD34+CD38− cells and block in myeloid DC progenitors reached a maximum: 1 µM
[3]; effect reversible, FIG. 18
  culture time with compound needed for interference with the CD34 differentiation pathway: at least 3 days
[3]; multiple doses
  expression of CD133: increases
[3]; multiple doses between days 0 and 6
  increase in the CD34+ population: intensified the increase
[3]; treated CD34+ progenitors, day 12
  expression of HLA-DR molecules: reduced
[4]; compound from day 1 to day 12
  phagocytic capacity at day 12: strong decrease
[4]; compound from day 6 to day 12
  phagocytic capacity at day 12: comparable
